Measured values: patent US6566349B1 (priority 2000, dated 2003)
Read-outs that look alike come from different tables or passages of the source.

Assays:
Thrips = assay type: in vivo
[1] = system: Colorado Potato Beetle (Leptinotarsa decemlineata); assay: Control of Colorado potato beetle in potatoes; assay type: in vivo; conditions: adjuvant 0.88 lb/A where added; for Total Number of larvae from a six meter plot, 3 DAT L2 / Total Number of larvae from a six meter plot, 7 DAT L2: first and second instar; for Total Number of larvae from a six meter plot, 3 DAT L4 / Total Number of larvae from a six meter plot, 7 DAT L4: third and fourth instar
Text: The efficacy of Guthion™ (azinphosmethyl) alone and in combination with Dash HC® against the Colorado Potato Beetle (Leptinotarsa decemlineata) on potatoes. The test plot area was monitored for the presence of significant naturally occurring populations of the target pest, Colorado potato beetle (CPB). At the critical pest population threshold, treatments were applied to 6 meter, single row plots of the crop using a CO2 pressurized backpack sprayer.
Treatments were sprayed on potatoes in the early bloom stage to a mature population of the Colorado potato beetle. Larvae were evaluated in two classes: class one=first and second instar larvae, class two=third and fourth instar. Population counts were taken at 3 and 7 days after treatment. Trial results can be seen in Table 8.
Azinphosmethyl was applied at a rate of 0.375 lb ai/A. The recommended rate for CPB control. The insecticide was combined with water at a rate of 64.1 gal/acre. […].
Azinphosmethyl was applied at a rate of 0.30 lb ai/A. This is a 20% reduction below the recommended rate for CPB control. The insecticide was combined with water at a rate of 64.1 gal/Acre.
Azinphosmethyl was applied at a rate of 0.19 lb ai/A. This is ½ of the recommended label rate for CPB control. The insecticide was combined with water at a rate of 64.1 gal/acre.
Azinphosmethyl was applied at a rate of 0.375 lb ai/A. The recommended rate for CPB control. The insecticide was combined with water at a rate of 64.1 gal/a.
Azinphosmethyl was applied at a rate of 0.30 lb ai/A. This is a 20% reduction below the recommended rate for CPB control. The insecticide was combined with water at a rate of 64.1 gal/Acre. […] With the 64.1 gal of water used to deliver the mix, the resultant adjuvant concentration was 0.383%.
Azinphosmethyl was applied at a rate of 0.19 lb ai/A. This is ½ of the recommended label rate for CPB control. The insecticide was combined with water at a rate of 64.1 gal/acre. […] With the 64.1 gal of water used to deliver the mix, the resultant adjuvant concentration was 0.383%.

cotton aphid [2] = assay type: in vivo; conditions: for Cotton aphid count 2 days after treatment: 5 leaves per plot, untreated 1277; for Cotton aphid count 2 days after treatment / Cotton aphid % control 2 days after treatment: lb./A: methyl parathion 0.5, oxydemeton-methyl 0.25, Dash 2.0, 53 gallons/A
cotton aphid [3] = assay type: in vivo
Bandedwinged Whitefly [4] = conditions: in vivo
Bandedwinged Whitefly [5] = conditions: in vivo; remark: listed apart in the source
Beet Armyworm [6] = assay: Control of beet armyworm in cotton; assay type: in vivo, beet armyworm (Spodoptera exigua)
Beet Armyworm [7] = assay: Control of beet armyworm in sweet corn; assay type: in vivo, beet armyworm (Spodoptera exigua)
[8] = system: imported cabbageworm (Pieris rapae); assay: Control of cabbage pests in cabbage: imported cabbageworm; assay type: in vivo
Tobacco Budworm = assay: Tobacco budworm boll damage in cotton; assay type: in vivo, tobacco budworm (Heliothis virescens); conditions: 50 bolls, lb./A: chlorpyrifos + dimethoate 0.62, chlorpyrifos 0.50, Dash 2.0, control 45
[9] = system: diamondback moth (Plutella xylostelia); assay: Control of cabbage pests in cabbage: diamondback moth; assay type: in vivo
[10] = system: cabbage looper (Trichoplasia ni); assay: Control of cabbage pests in cabbage: cabbage looper; assay type: in vivo
Fall Armyworm = assay: Control of fall armyworm in sweet corn; assay type: in vivo, fall armyworm (S. fruqiperda)
[11] = cotton, lb./A: acephate 0.20, dicrotophos 0.20, Dash 2.0
[12] = lb./A: chlorpyrifos + dimethoate 0.45, chlorpyrifos 0.94, Dash 2.0
[13] = chlorpyrifos 0.62 lb.ai/A, DASH 0.88 lb/a where added
[14] = chlorpyrifos 1.0 lb.ai/A, DASH 0.88 lb/a where added
[15] = chlorpyrifos 1.24 lb.ai/A alone (treatment B), control 2.3

Structure (SMILES): COP(=O)(OC)O/C(C)=C/C(=O)N(C)C [Dicrotophos]
- # Thrips/10 Plants, 0 DAT (Thrips; in vivo): 228 ± 108
- # Thrips/10 Plants, 1 DAT (Thrips; in vivo): 31 ± 12
- # Thrips/10 Plants, 5 DAT (Thrips; in vivo): 36 ± 28
- # Thrips/10 Plants, 9 DAT (Thrips; in vivo): 35 ± 16
- Thrips % control, 1 DAT (Thrips; in vivo): (73) %
- Thrips % control, 5 DAT (Thrips; in vivo): (45) %
- Thrips % control, 9 DAT (Thrips; in vivo): (03) %

Structure (SMILES): COP(=S)(OC)SCn1nnc2ccccc2c1=O [azinphosmethyl]
- Total Number of larvae from a six meter plot, 3 DAT L2 ([1]; azinphosmethyl 0.19 lb ai/A): 4.0
- Total Number of larvae from a six meter plot, 7 DAT L2 ([1]; azinphosmethyl 0.19 lb ai/A): 1.3
- Total Number of larvae from a six meter plot, 3 DAT L4 ([1]; azinphosmethyl 0.19 lb ai/A): 11.7
- Total Number of larvae from a six meter plot, 7 DAT L4 ([1]; azinphosmethyl 0.19 lb ai/A): 6.0
- Total Number of larvae from a six meter plot, 3 DAT L2 ([1]; azinphosmethyl 0.30 lb ai/A): 5.0
- Total Number of larvae from a six meter plot, 7 DAT L2 ([1]; azinphosmethyl 0.30 lb ai/A): 1.0
- Total Number of larvae from a six meter plot, 3 DAT L4 ([1]; azinphosmethyl 0.30 lb ai/A): 7.7
- Total Number of larvae from a six meter plot, 7 DAT L4 ([1]; azinphosmethyl 0.30 lb ai/A): 3.0
- Total Number of larvae from a six meter plot, 7 DAT L2 ([1]; azinphosmethyl 0.375 lb ai/A, control 3.0): 6.0
- Total Number of larvae from a six meter plot, 3 DAT L2 ([1]; azinphosmethyl 0.375 lb ai/A, control 29.7): 0.7
- Total Number of larvae from a six meter plot, 7 DAT L4 ([1]; azinphosmethyl 0.375 lb ai/A, control 24.3): 5.0
- Total Number of larvae from a six meter plot, 3 DAT L4 ([1]; azinphosmethyl 0.375 lb ai/A, control 79.3): 12.3

Structure (SMILES): CC[S+]([O-])CCSP(=O)(OC)OC (stereo not shown) [Oxydemeton-methyl]
- Cotton aphid count 2 days after treatment (cotton aphid [2]): 74
- Cotton aphid % control 2 days after treatment (cotton aphid [2]): 94%
- aphid control on tank-mixing with the adjuvant (cotton aphid [2]; in vivo): Improvement in aphid control

Structure (SMILES): CNC(=O)CSP(=S)(OC)OC [Dimethoate, O,O-dimethyl S-methylcarbamoylmethyl phosphorodithioate]
- aphid control on tank-mixing with the adjuvant (cotton aphid [3]; in vivo): Improvement in aphid control
- Cotton aphid count 2 days after treatment (cotton aphid [3]; okra, 20 leaves per plot, lb./A: methyl parathion 0.5, dimethoate 0.25, chlorpyrifos 0.17 + dimethoate 0.14, Dash 2.0, 30 gallons/A, untreated 132): 19
- Cotton aphid % control 2 days after treatment (cotton aphid [3]; okra, lb./A: methyl parathion 0.5, dimethoate 0.25, chlorpyrifos 0.17 + dimethoate 0.14, Dash 2.0, 30 gallons/A): 86%

Structure (SMILES): COP(=O)(NC(C)=O)SC (stereo not shown) [Acephate, O,S-dimethyl acetylphosphoramidothioate]
- # Whitefly adults counted, 7 days after treatment (Bandedwinged Whitefly [4]): 54
- Whitefly adults % control, 3 days after treatment (Bandedwinged Whitefly [4]): (98) %
- Whitefly adults % control, 7 days after treatment (Bandedwinged Whitefly [4]): (90) %
- Whitefly adults % control, 3 days after treatment (Bandedwinged Whitefly [5]): (98) %
- Thrips % control, 1 DAT (Thrips; [11]): (80) %
- Thrips % control, 5 DAT (Thrips; [11]): (35) %
- Thrips % control, 9 DAT (Thrips; [11]): (44) %
- # Thrips/10 Plants, 0 DAT (Thrips; cotton, lb./A: acephate 0.20, dicrotophos 0.20, Dash 2.0, 15 gallons/A, control 252 ± 88): 174 ± 50
- # Thrips/10 Plants, 9 DAT (Thrips; cotton, lb./A: acephate 0.20, dicrotophos 0.20, Dash 2.0, control 36 ± 32): 20 ± 18
- # Thrips/10 Plants, 5 DAT (Thrips; cotton, lb./A: acephate 0.20, dicrotophos 0.20, Dash 2.0, control 65 ± 43): 42 ± 17
- # Thrips/10 Plants, 1 DAT (Thrips; cotton, lb./A: acephate 0.20, dicrotophos 0.20, Dash 2.0, control 115 ± 50): 21 ± 9

Structure (SMILES): CCOP(=S)(OCC)Oc1nc(Cl)c(Cl)cc1Cl [Chlorpyrifos]
- beet armyworm control, tankmixed with Dash versus applied alone at the same rates (Beet Armyworm [6]; chlorpyrifos at half-to-two-thirds the labeled rate): effective and better beet armyworm control when takmixed with Dash than when applied alone
- # Beet Armyworms 3 days after treatment (Beet Armyworm [6]; cotton, 13-ft row section, lb./A: chlorpyrifos + dimethoate 0.62, chlorpyrifos 0.50, Dash 2.0, 20 gallons/A, control 112): 73
- Beet Armyworms % control 3 days after treatment (Beet Armyworm [6]; cotton, lb./A: chlorpyrifos + dimethoate 0.62, chlorpyrifos 0.50, Dash 2.0): 38%
- Beet Armyworm % control 4 DAT (Beet Armyworm [7]; [12]): 66%
- # Beet Armyworm 4 DAT (Beet Armyworm [7]; lb./A: chlorpyrifos + dimethoate 0.45, chlorpyrifos 0.94, Dash 2.0, 33 gallons/A, control 3): 1
- # of larvae PIERRA 4DAT [8, 13]: 0
- # of larvae PIERRA 7DAT [8, 13]: 0.3
- # of larvae PIERRA 4DAT [8, 14]: 0
- # of larvae PIERRA 7DAT [8, 14]: 1.0
- # of larvae PIERRA 7DAT [8, 15]: 1.3
- # of larvae PIERRA 4DAT ([8]; chlorpyrifos 1.24 lb.ai/A alone (treatment B), control 4.7): 0
- % Bolls Damaged by Tobacco Budworm 3 DAT (Tobacco Budworm): 42%
- # of larvae PLUTMA 4DAT [9, 13]: 0.7
- # of larvae PLUTMA 7DAT [9, 13]: 0.3
- # of larvae PLUTMA 4DAT [9, 14]: 0.3
- # of larvae PLUTMA 7DAT [9, 14]: 0
- # of larvae PLUTMA 7DAT ([9]; chlorpyrifos 1.24 lb.ai/A alone (treatment B), control 1.7): 1.0
- # of larvae PLUTMA 4DAT [9, 15]: 1.0
- # of larvae TRIPNI 4DAT ([10]; 3 plants per plot, chlorpyrifos 1.24 lb.ai/A alone (treatment B), control 1.7): 0.7
- # of larvae TRIPNI 4DAT [10, 13]: 2.7
- # of larvae TRIPNI 7DAT [10, 13]: 0.7
- # of larvae TRIPNI 4DAT [10, 14]: 1.3
- # of larvae TRIPNI 7DAT [10, 14]: 2.0
- # of larvae TRIPNI 7DAT ([10]; chlorpyrifos 1.24 lb.ai/A alone (treatment B), control 0.3): 0.7
- Fall Armyworm % control 4 DAT (Fall Armyworm; [12]): 95%
- # Fall Armyworm 4 DAT (Fall Armyworm; lb./A: chlorpyrifos + dimethoate 0.45, chlorpyrifos 0.94, Dash 2.0, 33 gallons/A, control 5): 0.25

Structure (SMILES): COP(=S)(OC)Oc1ccc([N+](=O)[O-])cc1 [Methyl parathion, O,O-dimethyl O-(4-nitrophenyl)phosphorothioate]
- Cotton aphid % control 2 days after treatment (cotton aphid [3]; in vivo): 21 (84) %
- Cotton aphid count 2 days after treatment (cotton aphid [3]; in vivo): 21 (84)
- Cotton aphid count 2 days after treatment (cotton aphid [2]): 293
- Cotton aphid % control 2 days after treatment (cotton aphid [2]): 77%
- cotton aphid control, tank-mixed with the adjuvant versus applied alone (cotton aphid [2]; rates below the recommended maximum rate for aphid control): much higher when tank-mixed with the adjuvant than when applied alone
